Measured values reported in paper PMC7020459, “Antioxidant and Enzyme Inhibitory Properties of the Polyphenolic-Rich Extract from an Ancient Apple Variety of Central Italy (Mela Rosa dei Monti Sibillini)” (Plants, 2019).

Columns and labels:
[1] = ABTS radical cation decolorization assay; settings: concentration causing 50% decrease in initial ABTS concentration
Method: (§1) The in vitro antioxidant activity of the different samples was assessed through three assays by means of standard methods using a SPECTROstar Omega (BMG LABTECH GmbH, Ortenberg, Germany) microplate reader. For the preparation of the stock solution, around 10 ± 1 mg of the different samples were diluted in 1 mL of methanol in an Eppendorf. Then, 100 µL of this stocked solution was diluted with 900 µL of methanol for the analyses. All analyses were conducted at least twice.
The total radical scavenging activity was measured using 2, 2′-azino-bis (3-ethylbenzothiazoline-6-sulphonic acid) (ABTS) assay. The ABTS^•+ solution was freshly prepared by the oxidation of ABTS (10 mg) by MnO2 (0.75 g) in the presence of distilled water (4 mL), followed by 30 min of incubation away from light at room temperature. The working solution was obtained by filtration and dilution with methanol of the previous mixture to give an absorbance of AU 1 at 734 nm. The extract concentrations used were the same as for the DPPH assay, and 200 µL of the ABTS solution was added to the wells. After 15 min of incubation, the absorbance of each well was determined at 734 nm. Trolox (6-hydroxy-2,5,7,8-tetramethylchroman-2-carboxylic acid) was the reference compound used in both DPPH and ABTS assays. […]

[2] = DPPH free radical scavenging assay; settings: concentration causing 50% decrease in initial DPPH concentration
Method: as §1
The free radical scavenging activity was evaluated using 1, 1-diphenyl-2-picrylhydrazyl (DPPH) on microplate analytical assay, as described by Beghelli et al. and Censi et al.. […] The absorbance of the wells was measured at 517 nm with a microplate reader against a blank prepared using methanol in addition to the DPPH reagent to get rid of any inherent solvent activity.
The total radical scavenging activity was measured using 2, 2′-azino-bis (3-ethylbenzothiazoline-6-sulphonic acid) (ABTS) assay. […] The working solution was obtained by filtration and dilution with methanol of the previous mixture to give an absorbance of AU 1 at 734 nm. […] After 15 min of incubation, the absorbance of each well was determined at 734 nm. […]

[3] = biological target: T1, lipase type II from porcine pancreas (Sus scrofa, UniProt P00591); test: lipase inhibition assay; type: biochemical; settings: maximal inhibition reached
T1 construct: purchased Sigma-Aldrich (Madrid, Spain); host or cells: porcine pancreas
T1 sequence (P00591 1-450): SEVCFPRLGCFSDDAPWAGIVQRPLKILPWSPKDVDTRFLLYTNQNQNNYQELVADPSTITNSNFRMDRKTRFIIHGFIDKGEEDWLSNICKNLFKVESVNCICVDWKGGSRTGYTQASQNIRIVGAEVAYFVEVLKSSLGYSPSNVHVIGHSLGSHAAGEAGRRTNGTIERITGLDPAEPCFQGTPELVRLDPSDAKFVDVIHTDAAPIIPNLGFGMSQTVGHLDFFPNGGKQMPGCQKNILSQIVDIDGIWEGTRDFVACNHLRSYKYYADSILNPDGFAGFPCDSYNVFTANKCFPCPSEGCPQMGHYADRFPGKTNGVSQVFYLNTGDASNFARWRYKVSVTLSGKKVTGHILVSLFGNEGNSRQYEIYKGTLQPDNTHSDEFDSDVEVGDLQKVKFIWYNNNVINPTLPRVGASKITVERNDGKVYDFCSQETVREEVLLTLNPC
Method: The lipase inhibition assay was based on a previous protocol. […] Then, 20 µL of pNPB (10 mM in ethanol) was added to each well and incubated for another 15 min at 37 °C. Blanks and control wells were made.

Cc1c(C)c2c(c(C)c1O)CCC(C)(C(=O)O)O2 (stereo not drawn) [Trolox, 6-hydroxy-2,5,7,8-tetramethylchroman-2-carboxylic acid]
ABTS IC50 [1]: 4.7 ± 0.2 µg/mL
DPPH IC50 [2]: 5.3 ± 1.1 µg/mL

CCCCCCCCCCC[C@@H](C[C@@H]1OC(=O)[C@H]1CCCCCC)OC(=O)[C@H](CC(C)C)NC=O [Orlistat]
lipase inhibition reached [3]: 75%
